# Experimental data taken from ChEMBL document CHEMBL1145362, “Structure-activity relationships of SERMs optimized for uterine antagonism and ovarian safety” (Bioorg Med Chem Lett, 2007).
# What was measured:
# Ishikawa [1] = assay: Inhibition of estrogen stimulation in human Ishikawa cells by alkaline phosphatase quantitation; assay type: functional, cell-based; conditions: for IC50: Homo sapiens, Ishikawa
# Ishikawa [2] = assay: Increase in estrogen stimulation in human Ishikawa cells by alkaline phosphatase quantitation at 1 uM relative to control; assay type: functional
# Rattus norvegicus [3] = assay: Inhibition of estrogen stimulation in Sprague-Dawley rat at 10 mg/kg; assay type: functional
# Estrogen receptor = target: T1, Estrogen receptor (Homo sapiens, UniProt P03372)
# T1 sequence (P03372 whole entry): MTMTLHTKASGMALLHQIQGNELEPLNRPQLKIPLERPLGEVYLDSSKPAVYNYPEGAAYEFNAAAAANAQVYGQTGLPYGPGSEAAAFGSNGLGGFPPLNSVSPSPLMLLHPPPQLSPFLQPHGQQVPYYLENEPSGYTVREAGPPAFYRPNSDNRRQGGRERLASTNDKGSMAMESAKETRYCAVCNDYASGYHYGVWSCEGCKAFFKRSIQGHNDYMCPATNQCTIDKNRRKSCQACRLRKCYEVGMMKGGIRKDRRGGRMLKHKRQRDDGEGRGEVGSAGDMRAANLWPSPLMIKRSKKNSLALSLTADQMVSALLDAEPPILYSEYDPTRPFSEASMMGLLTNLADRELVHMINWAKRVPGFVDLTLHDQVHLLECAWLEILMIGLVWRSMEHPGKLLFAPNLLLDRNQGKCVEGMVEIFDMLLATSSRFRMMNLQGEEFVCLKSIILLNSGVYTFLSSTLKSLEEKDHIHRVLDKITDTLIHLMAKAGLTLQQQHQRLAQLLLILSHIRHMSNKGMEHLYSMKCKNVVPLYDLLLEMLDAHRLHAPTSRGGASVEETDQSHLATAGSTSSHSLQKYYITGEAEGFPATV
# Description: Displacement of [3H]estradiol from human recombinant ERalpha
# Rattus norvegicus [4] = assay: Inhibition of estradiol-induced increase in uterine wet weight in orally dosed Sprague-Dawley rat after 3 days; assay type: functional; conditions: po, 72 h
# Estrogen receptor beta = Estrogen receptor beta (Homo sapiens, UniProt Q92731); assay: Displacement of [3H]estradiol from human recombinant ERbeta
# [5] = Drug level in Sprague-Dawley rat plasma at 10 mg/kg, po after 6 hrs; assay type: ADME, organism-based; design: dose 10 mg/kg, route oral; conditions: read-out: Drug uptake
# [6] = Drug level in Sprague-Dawley rat brain at 10 mg/kg, po after 6 hrs; assay type: ADME, organism-based; design: dose 10 mg/kg, route oral; conditions: read-out: Drug uptake
# [7] = Ratio of log of drug level in brain to blood in Sprague-Dawley rat; assay type: ADME, tissue-based; conditions: read-out: logBB (converted)
# Rattus norvegicus [8] = assay: Increase in uterine wet weight in Sprague-Dawley rat at 0.1 mg/kg; assay type: functional
# Chain of Estrogen receptor beta (Q92731 whole entry): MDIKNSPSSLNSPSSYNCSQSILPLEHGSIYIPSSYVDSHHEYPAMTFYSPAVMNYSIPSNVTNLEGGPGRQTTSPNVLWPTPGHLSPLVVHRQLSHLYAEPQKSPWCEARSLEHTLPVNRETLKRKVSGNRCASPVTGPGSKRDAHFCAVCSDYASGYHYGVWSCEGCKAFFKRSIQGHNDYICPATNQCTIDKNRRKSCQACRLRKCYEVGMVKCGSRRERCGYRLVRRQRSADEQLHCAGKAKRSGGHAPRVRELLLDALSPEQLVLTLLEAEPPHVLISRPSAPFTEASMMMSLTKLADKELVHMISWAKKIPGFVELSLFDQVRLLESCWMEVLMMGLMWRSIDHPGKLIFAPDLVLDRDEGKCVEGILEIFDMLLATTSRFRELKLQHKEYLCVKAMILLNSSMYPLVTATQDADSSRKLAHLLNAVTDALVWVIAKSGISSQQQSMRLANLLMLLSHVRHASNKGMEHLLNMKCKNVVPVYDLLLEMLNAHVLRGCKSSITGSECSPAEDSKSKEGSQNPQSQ
Compound,Efficacy (Ishikawa [1]) [%],IC50 (Ishikawa [1]) [nM],Efficacy (Ishikawa [2]) [%],ED50 (Rattus norvegicus [3]) [mg/kg],inhibition in vivo at 10 mg/kg (Rattus norvegicus [3]) [%],Ki (Estrogen receptor) [nM],ED50 (Rattus norvegicus [4]) [mg/kg],Ki (Estrogen receptor beta) [nM],concentration at 6 h [5] [ng/mL],concentration at 6 h [6] [ng/g],Kp [7],Fold change (Rattus norvegicus [8])
CS(=O)(=O)C1CC=C(c2ccc3cc(O)ccc3c2Oc2ccc(OCCN3CCCCC3)cc2)CC1 (centres undefined),99,8,24,< 1,83,1.09,0.26,2.69,–,–,–,–
CS(=O)(=O)c1ccc(-c2ccc3cc(O)ccc3c2Oc2ccc(OCCN3CCCCC3)cc2)cc1,–,–,–,–,–,–,–,–,660,103,0.155,–
Oc1ccc(-c2ccc3cc(O)ccc3c2Oc2ccc(OCCN3CCCCC3)cc2)cc1,96,4.7,13,< 1,83,0.32,0.3,0.48,277,47,0.17,–
O=S1(=O)CCC(c2ccc3cc(O)ccc3c2Oc2ccc(OCCN3CCCCC3)cc2)CC1,93,15.7,27,< 1,83,1.89,0.34,4.11,–,–,–,–
CC(C)S(=O)(=O)c1ccc(-c2ccc3cc(O)ccc3c2Oc2ccc(OCCN3CCCCC3)cc2)cc1,96,4.9,11,< 1,83,0.73,0.37,2.17,–,–,–,–
N#Cc1cccc(-c2ccc3cc(O)ccc3c2Oc2ccc(OCCN3CCCCC3)cc2)c1,94,18.5,23,< 1,83,0.24,0.37,0.35,360,529,–,–
O=S1(=O)CC=C(c2ccc3cc(O)ccc3c2Oc2ccc(OCCN3CCCCC3)cc2)CC1,98,7.2,19,< 1,83,1.03,0.25,2.1,–,–,–,–
"C#CC1(O)CC[C@H]2[C@@H]3CCc4cc(O)ccc4[C@H]3CC[C@@]21C (single isomer, unassigned) [ETHINYL ESTRADIOL]",–,–,–,–,–,–,–,–,–,–,–,3
CN(C)S(=O)(=O)c1ccc(-c2ccc3cc(O)ccc3c2Oc2ccc(OCCN3CCCCC3)cc2)cc1,99,2.8,27,< 1,83,0.4,0.44,1.69,108,46,0.427,–
Oc1ccc2c(Oc3ccc(OCCN4CCCCC4)cc3)c(-c3ccc(F)c(F)c3)ccc2c1,96,3.9,13,< 1,83,0.2,0.058,0.29,418,3490,8.32,–
CN(C)C(=O)c1ccc(-c2ccc3cc(O)ccc3c2Oc2ccc(OCCN3CCCCC3)cc2)cc1,95,6.7,25,< 1,83,0.57,0.19,1.16,–,–,–,–
Oc1ccc2c(Oc3ccc(OCCN4CCCCC4)cc3)c(-c3ccc(F)cc3)ccc2c1,93,3.2,21,< 1,83,0.24,0.015,0.28,151,2690,17.8,–
CS(=O)(=O)c1ccc(-c2sc3cc(O)ccc3c2Oc2ccc(OCCN3CCCCC3)cc2)cc1,97,22.2,24,< 1,83,0.63,0.62,13.6,–,–,–,–
CC(C)c1ccc(-c2sc3cc(O)ccc3c2Oc2ccc(OCCN3CCCCC3)cc2)cc1,95,16.2,29,< 1,83,0.091,0.16,0.63,–,–,–,–
Oc1ccc2c(Oc3ccc(OCCN4CCCCC4)cc3)c(-c3cccc(F)c3)ccc2c1,97,4.8,15,< 1,83,0.18,0.23,0.16,137,730,5.37,–
CCS(=O)(=O)c1ccc(-c2sc3cc(O)ccc3c2Oc2ccc(OCCN3CCCCC3)cc2)cc1,95,14.5,16,< 1,83,–,0.56,15.7,–,–,–,–
Oc1cccc(-c2ccc3cc(O)ccc3c2Oc2ccc(OCCN3CCCCC3)cc2)c1,100,2.1,26,< 1,83,0.21,0.13,0.36,211,57,0.269,–
CCS(=O)(=O)c1ccc(-c2ccc3cc(O)ccc3c2Oc2ccc(OCCN3CCCCC3)cc2)cc1,95,6.1,19,< 1,83,1.22,0.14,4.19,357,43,0.12,–
